# Data from paper PMC3632557, “Histatin 5 Resistance of Candida glabrata Can Be Reversed by Insertion of Candida albicans Polyamine Transporter-Encoding Genes DUR3 and DUR31” (PLoS ONE, 2013).
# Key:
# [1] = tested on: C. albicans CAI4; experiment: Spermidine uptake rate; format: cell-based, Candida albicans; settings: method as in earlier work
# Source text: (§1) Next, we investigated the role of altered Hst 5 uptake mechanisms between C. albicans and C. glabrata as a probable reason for their differential susceptibilities to Hst 5. C. albicans contains six DUR transporter family members that are responsible for polyamine (spermidine, spermine, and putrescine) uptake. […] C. glabrata CAGL0K03157g product has 54% identity and 71% similarity with C. albicans DUR3 (orf19.781); and C. glabrata CAGL0108613g product has 51% identity and 69% similarity with C. albicans DUR31 (orf19.6656). However, C. glabrata CAGL0K03157g (CaDUR3 homologue) gene product has even higher homology with S. cerevisiae DUR3, having 65% identity and 76% similarity. The in silico predicted function of these C. glabrata proteins is transmembrane transport; however their specific functions remain uncharacterized. […] There were no significant differences in rates of spermidine uptake among the three strains of C. glabrata (0.163±0.015 nanomoles/10^6 cells/min) compared to C. albicans (0.160±0.014 nanomoles/10^6 cells/min); thus showing polyamine transporter activity is equivalent between C. albicans and C. glabrata strains in respect to spermidine.
# [2] = tested on: C. glabrata Cg10, Cg30, Cg32; experiment: Spermidine uptake rate; format: cell-based, Candida glabrata; settings: three strains of C. glabrata; method as in earlier work
# Source text: as §1
# [3] = tested on: C. glabrata Cg30 biofilm; experiment: Confocal microscopy of F-Hst 5 in 24 h biofilms; format: cell-based, Candida glabrata; settings: FITC-labeled Hst 5 31.5 µM, 24 h biofilm
# Procedure: CAI4, Cg10, Cg30, Cg32, BG14, Cg BG14-CaDUR3, Cg BG14-CaDUR31, and Cg BG14-Empty vector were treated with fluorescein isothiocyanate FITC-labeled Hst 5 (F-Hst 5, synthesized by Genemed Synthesis, Inc.) to observe relative binding and uptake of salivary Hst 5 as described previously. […] Cells grown overnight (A600 = 0.8–1.0) were diluted to obtain 10^6 cells/ml in NaPB. Chambered cover glass slides (Lab-TekII) were coated with concanavalin A (100 µg/ml) for 30 min and washed twice with water. Cells (1×10^6) were fixed on concanavalin A-coated slides for 30 min at room temperature. The plates were then washed twice with 10 mM NaPB followed by addition of 31 µM FITC-Hst 5. Images were captured using a Zeiss LSM 510 Meta Confocal Microscope and Plan Apochromat 63/1.4 (oil) objective. The average fluorescence intensity was calculated using ImageJ software. […] Hst 5 binding to Candida biofilms was analyzed using confocal microscopy on biofilms of CAI4 and Cg30 strains. […] Biofilms were measured using a series of horizontal (x–y) optical sections with a thickness of 0.38 µm taken throughout the full length of the biofilm. […] The total number of F-Hst 5 labeled cells was quantified in CAI4 and Cg30 biofilms manually from three independent stacks originating at the Bottom (2–3 µm), Middle (6–8 µm) or Top (12–16 µm) regions of the biofilm. […]
# [4] = tested on: C. albicans CAI4 biofilm; experiment: Confocal microscopy of F-Hst 5 in 24 h biofilms; format: cell-based, Candida albicans; settings: FITC-labeled Hst 5 31.5 µM, 24 h biofilm
# Procedure: CAI4, Cg10, Cg30, Cg32, BG14, Cg BG14-CaDUR3, Cg BG14-CaDUR31, and Cg BG14-Empty vector were treated with fluorescein isothiocyanate FITC-labeled Hst 5 (F-Hst 5, synthesized by Genemed Synthesis, Inc.) to observe relative binding and uptake of salivary Hst 5 as described previously. […] Cells grown overnight (A600 = 0.8–1.0) were diluted to obtain 10^6 cells/ml in NaPB. Chambered cover glass slides (Lab-TekII) were coated with concanavalin A (100 µg/ml) for 30 min and washed twice with water. Cells (1×10^6) were fixed on concanavalin A-coated slides for 30 min at room temperature. The plates were then washed twice with 10 mM NaPB followed by addition of 31 µM FITC-Hst 5. Images were captured using a Zeiss LSM 510 Meta Confocal Microscope and Plan Apochromat 63/1.4 (oil) objective. The average fluorescence intensity was calculated using ImageJ software. Confocal images of cells were compared to determine the relative binding and uptake of Hst 5. Hst 5 binding to Candida biofilms was analyzed using confocal microscopy on biofilms of CAI4 and Cg30 strains. Biofilms were formed by addition of 500 µl cells (cultured overnight in YPD at 28°C, then washed and diluted to OD600 = 1.0 in PBS) to each well of culture dishes (MatTek, MA) and incubated at 37°C for 3 h. Non-adherent cells were removed by gentle washing and 500 µl media was added to each well. The dishes were then incubated at 37°C for 24 h to allow biofilm formation. F-Hst 5 (31.5 µM) was added to each well. Biofilms were measured using a series of horizontal (x–y) optical sections with a thickness of 0.38 µm taken throughout the full length of the biofilm. Z-stack images and thickness measurements of biofilms were obtained using AxioVision 4.4 software (Carl Zeiss LSM Micro Imaging). […] The total number of F-Hst 5 labeled cells was quantified in CAI4 and Cg30 biofilms manually from three independent stacks originating at the Bottom (2–3 µm), Middle (6–8 µm) or Top (12–16 µm) regions of the biofilm. Values were plotted using Graphpad Prism 5 software.
# [5] = tested on: C. glabrata strains (ATCC 90030, 2001 and 64677); settings: strains completely insensitive even at high concentrations; ref [10]; cited from earlier work
# Source text: Histatins are basic histidine-rich proteins secreted in human parotid and submandibular-sublingual saliva in humans and higher primates. Histatin 5 (Hst 5) is a proteolytic cleavage product of the larger Histatin 3 family member, [6]. […] However, ma ...
# [6] = tested on: C. glabrata Cg 90032 (Cg32); experiment: Candidacidal assay (microdilution plate); format: cell-based, Candida glabrata; settings: Hst 5 up to 31 µM; 10 mM NaPB pH 7.2, 30°C, 30 min, colony counts; n = 4
# Procedure: (§2) Candidacidal assays were performed using microdilution plate assays. Briefly, single colonies of C. albicans CAI4, C. glabrata Cg10, Cg30, Cg32, and BG14 strains were inoculated in YPD media; Cg BG14-CaDUR3, Cg BG14-CaDUR31, and Cg BG14-Empty vector were inoculated in YNB media without uridine and grown overnight (A600 = 1.6–1.8). Cells were washed twice with 10 mM sodium phosphate buffer (NaPB) (pH 7.2) and cells (1×10^6) were incubated at 30°C for 30 min with different concentrations of Hst 5. Aliquots of 500 cells were spread onto YPD (WT strains) or YNB - uridine (C. glabrata expressing C. albicans DUR genes) agar plates and incubated for 48 h to visualize surviving colonies. Blocking experiments were performed using cells pre-incubated with β-1,3-glucan monoclonal antibody (Biosupplies) at room temperature for 30 min. All killing assays were performed in triplicate and repeated at least thrice. Percent cell killing was calculated as 1−(number of colonies from suspensions with Hst 5/numbers of colonies from control suspensions)×100.
# [7] = tested on: Cg BG14-CaDUR31; experiment: Candidacidal assay (microdilution plate); format: cell-based, Candida glabrata; settings: Hst 5 60 µM; 10 mM NaPB pH 7.2, 30°C, 30 min, colony counts; n = 3
# Procedure: as §2
# [8] = tested on: C. glabrata BG14 cells not expressing C. albicans DUR genes; experiment: Candidacidal assay (microdilution plate); format: cell-based, Candida glabrata; settings: Hst 5 60 µM; 10 mM NaPB pH 7.2, 30°C, 30 min, colony counts; n = 3
# Procedure: as §2
# [9] = tested on: C. glabrata Cg 931010 (Cg10); experiment: Candidacidal assay (microdilution plate); format: cell-based, Candida glabrata; settings: 31 µM Hst 5; 1×10^6 cells, 10 mM NaPB pH 7.2, 30°C, 30 min, colony counts; n = 4
# Procedure: as §2
# [10] = tested on: C. glabrata Cg 90030 (Cg30); experiment: Candidacidal assay (microdilution plate); format: cell-based, Candida glabrata; settings: Hst 5 up to 31 µM; 10 mM NaPB pH 7.2, 30°C, 30 min, colony counts; n = 4
# Procedure: as §2
# [11] = tested on: Cg BG14-CaDUR3; experiment: Candidacidal assay (microdilution plate); format: cell-based, Candida glabrata; settings: Hst 5 60 µM; 10 mM NaPB pH 7.2, 30°C, 30 min, colony counts; n = 3
# Procedure: as §2
# [12] = tested on: C. albicans CAI4; experiment: Candidacidal assay (microdilution plate); format: cell-based, Candida albicans; settings: 31 µM Hst 5; 1×10^6 cells, 10 mM NaPB pH 7.2, 30°C, 30 min, colony counts after 48 h; n = 4
# Procedure: as §2
Molecule,rate of spermidine uptake [1] [nanomoles/10^6 cells/min],rate of spermidine uptake [2] [nanomoles/10^6 cells/min],"Hst 5 containing cells, total biofilm [3] [%]","percentage of Hst 5-labeled cells, bottom regions (2.5 µm) [3] [%]","Hst 5 containing cells, total biofilm [4] [%]","percentage of Hst 5 containing cells, bottom regions [4]","percentage of Hst 5 positive cells, middle regions (8 µm) [4] [%]",IC50 [5] [µg/mL],maximal killing [6] [%],killing [7] [%],killing [8] [%],killing [9] [%],maximal killing [10] [%],killing [11] [%],cell death (killing) [12] [%]
NCCCCNCCCN [spermidine],0.160±0.014,0.163±0.015,–,–,–,–,–,–,–,–,–,–,–,–,–
Histatin 5 [Hst 5],–,–,17,20,28,≈ 25%,33,> 225,10,55,25,22,8,43,65
